Results on 20 compounds are retold here after patent US7473688B2, “Indolobenzazepine HCV NS5B inhibitors” (Bristol-Myers Squibb Company, priority 2005, dated 2009).

Read-outs that look alike come from different tables or passages of the source.

In assay [1] the test system is HCV replicon. Nature of the assay: HCV replicon FRET assay. The assay is classed as cell-based. Particulars: Hepatitis C virus, FRET assay, read-out: EC50*. In short, it runs like this: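 HCV replicon cells, with or without Renilla luciferase reporter, incubated with titrated compounds at 37 °C; Alamar blue read for cytotoxicity. NS3 protease activity read from lysates with 20 μM EDANS/DABCYL FRET peptide (340/490 nm, kinetic), or by Dual-Glo luciferase. Background from highest protease-inhibitor wells; EC50 = 50% signal reduction.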
(Replicon systems follow genome replication, usually without infectious particles.)

Assay [2] addresses T1, HCV NS5B (Hepatitis C virus genotype 1b, UniProt Q9WMX2).
T1 construct: The protein was expressed with an 18 amino acid C-terminal truncation to enhance the solubility; made in house; host or cells: E. coli BL21 (DE3), pET21a
Nature of the assay: HCV NS5B RdRp enzyme assay (preincubation protocol). The assay is classed as biochemical. Particulars: read-out: IC50*. In short, it runs like this:
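C-terminally truncated (Δ18) genotype 1b NS5B from E. coli, 14 nM, added to compound, then polyA template (0.2 nM), 3H-UTP (0.29 μM) and oligo-dT12 primer precaptured on streptavidin SPA beads. 4 h at 30 °C, pH 7.5, 2% DMSO; SPA readout; IC50 from seven concentrations by logistic fit.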

T1 sequence (Q9WMX2 2420-2992): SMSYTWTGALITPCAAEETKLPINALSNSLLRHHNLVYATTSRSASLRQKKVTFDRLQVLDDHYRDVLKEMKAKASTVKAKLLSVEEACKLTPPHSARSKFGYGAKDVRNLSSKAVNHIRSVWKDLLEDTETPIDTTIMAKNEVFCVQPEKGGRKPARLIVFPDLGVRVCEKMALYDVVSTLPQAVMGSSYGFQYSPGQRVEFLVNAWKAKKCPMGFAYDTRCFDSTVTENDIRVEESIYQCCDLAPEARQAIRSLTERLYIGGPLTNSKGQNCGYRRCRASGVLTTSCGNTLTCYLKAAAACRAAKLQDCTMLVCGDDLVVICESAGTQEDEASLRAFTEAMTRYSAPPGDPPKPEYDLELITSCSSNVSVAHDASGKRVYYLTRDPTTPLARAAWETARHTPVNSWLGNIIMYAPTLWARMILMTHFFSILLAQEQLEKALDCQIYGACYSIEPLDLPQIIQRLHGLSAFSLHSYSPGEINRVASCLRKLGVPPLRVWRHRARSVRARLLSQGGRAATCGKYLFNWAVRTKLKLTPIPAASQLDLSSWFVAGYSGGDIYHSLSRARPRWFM

For the compound `COc1ccc2c(c1)CC(NC(=O)N(C)CC(=O)N1CCOCC1)Cn1c-2c(C2CCCCC2)c2ccc(C(=O)NS(=O)(=O)N(C)C)cc21` (stereo not shown), the EC50 in assay [1] (Table 1a) lay within 30 to 1000 nM. In addition, the IC50 in assay [2] (Table 1a) was 10 to 1000 nM.
With `COc1ccc2c(c1)CC(NC(=O)N1CCC(N3CCOCC3)CC1)Cn1c-2c(C2CCCCC2)c2ccc(C(=O)NS(=O)(=O)N(C)C)cc21` (stereo not shown), the EC50 in assay [1] (Table 1a) was 30 to 1000 nM. In addition, in assay [2] (Table 1a), the IC50 is 10 to 1000 nM.
`COc1ccc2c(c1)CC(NC(=O)N1CCOC(CN(C)C)C1)Cn1c-2c(C2CCCCC2)c2ccc(C(=O)NS(=O)(=O)N(C)C)cc21` (stereo not shown): the concentration for a half-maximal effect (EC50) in assay [1] (Table 1a) is 30 to 1000 nM. For the same compound, the IC50 in assay [2] (Table 1a) was in the range of 10 to 1000 nM.
With `COc1ccc2c(c1)CC(NC(=O)N1CCOC(CN3CCCC3)C1)Cn1c-2c(C2CCCCC2)c2ccc(C(=O)NS(=O)(=O)N(C)C)cc21` (stereo not shown), the EC50 in assay [1] (Table 1a) fell in the range of 30 to 1000 nM. The IC50 in assay [2] (Table 1a) is 10 to 1000 nM.
Take `COc1ccc2c(c1)CC(NC(=O)N1CCN(C(N)=O)CC1)Cn1c-2c(C2CCCCC2)c2ccc(C(=O)NS(=O)(=O)N(C)C)cc21` (stereo not shown): the EC50 in assay [1] (Table 1a) was in the range of 30 to 1000 nM. For the same compound, the IC50 in assay [2] (Table 1a) was in the range of 10 to 1000 nM.
Taken in the same sequence, the figures for `COc1ccc2c(c1)CC(NC(=O)N1CCN(CC(=O)NC(C)C)CC1)Cn1c-2c(C2CCCCC2)c2ccc(C(=O)NS(=O)(=O)N(C)C)cc21` (stereo not shown) were 30 to 1000 nM and 10 to 1000 nM.
In the case of `CCN(C(C)=O)C1CCN(C(=O)NC2Cc3cc(OC)ccc3-c3c(C4CCCCC4)c4ccc(C(=O)NS(=O)(=O)N(C)C)cc4n3C2)C1` (stereo not shown), the EC50 in assay [1] (Table 1a) lay within 30 to 1000 nM. Also, the IC50 in assay [2] (Table 1a) lay within 10 to 1000 nM.
Taken in the same sequence, the figures for `COc1ccc2c(c1)CC(NC(=O)N1CCS(=O)(=O)CC1)Cn1c-2c(C2CCCCC2)c2ccc(C(=O)NS(=O)(=O)N(C)C)cc21` (stereo not shown) were 30 to 1000 nM and 10 to 1000 nM.
Taken in the same sequence, the figures for `COc1ccc2c(c1)CC(NC(=O)N1C[C@@H]3C[C@H]1CO3)Cn1c-2c(C2CCCCC2)c2ccc(C(=O)NS(=O)(=O)N(C)C)cc21` (stereo partly shown) were 30 to 1000 nM and 10 to 1000 nM.
The corresponding values for `COc1ccc2c(c1)CC(NC(=O)NCCN1CCOCC1)Cn1c-2c(C2CCCCC2)c2ccc(C(=O)NS(=O)(=O)N(C)C)cc21` (stereo not shown) are 30 to 1000 nM and 10 to 1000 nM.
For `COc1ccc2c(c1)CC(NC(=O)N1CCC(N3CCCC3)CC1)Cn1c-2c(C2CCCCC2)c2ccc(C(=O)NS(=O)(=O)N(C)C)cc21` (stereo not shown), the EC50 in assay [1] (Table 1a) is 30 to 1000 nM. In addition, the IC50 in assay [2] (Table 1a) fell in the range of 10 to 1000 nM.
Taken in the same sequence, the figures for `COc1ccc2c(c1)CC(NC(=O)N1CCN(S(C)(=O)=O)CC1)Cn1c-2c(C2CCCCC2)c2ccc(C(=O)NS(=O)(=O)N(C)C)cc21` (stereo not shown) were 30 to 1000 nM and 10 to 1000 nM.
Take `COc1ccc2c(c1)CC(NC(=O)N1CCN(C(C)=O)CC1)Cn1c-2c(C2CCCCC2)c2ccc(C(=O)NS(=O)(=O)N(C)C)cc21` (stereo not shown): the EC50 in assay [1] (Table 1a) is 30 to 1000 nM. The IC50 in assay [2] (Table 1a) was in the range of 10 to 1000 nM.
As to `COc1ccc2c(c1)CC(NC(=O)N(C)CC(=O)N(C)C)Cn1c-2c(C2CCCCC2)c2ccc(C(=O)NS(=O)(=O)N(C)C)cc21` (stereo not shown), the EC50 in assay [1] (Table 1a) fell in the range of 30 to 1000 nM. The IC50 in assay [2] (Table 1a) lay within 10 to 1000 nM.
With `COc1ccc2c(c1)C=C(C(=O)N(C)C1CCOCC1)Cn1c-2c(C2CCCCC2)c2ccc(C(=O)NS(=O)(=O)N(C)C)cc21`, the EC50 in assay [1] (Table 1a) was over 120 nM. The IC50 in assay [2] (Table 1a) lay in the range of 10 to 1000 nM.
Take `COc1ccc2c(c1)C=C(C(=O)NCc1nccs1)Cn1c-2c(C2CCCCC2)c2ccc(C(=O)NS(=O)(=O)N(C)C)cc21`: in assay [1] (Table 1a), the EC50 lay in the range of 30 to 1000 nM. Further, the IC50 in assay [2] (Table 1a) lay within 10 to 1000 nM.
In the case of `CCN(C)C(=O)NC1Cc2cc(OC)ccc2-c2c(C3CCCCC3)c3ccc(C(=O)NS(=O)(=O)N(C)C)cc3n2C1` (stereo not shown), in assay [1] (Table 1b), the 50% effective concentration (EC50) was 30 to 1000 nM. In assay [2] (Table 1b), the half-inhibitory concentration (IC50) fell in the range of 20 to 1000 nM.
With `COc1ccc2c(c1)CC(NC(=O)N(C)CCN(C)C)Cn1c-2c(C2CCCCC2)c2ccc(C(=O)NS(=O)(=O)N(C)C)cc21` (stereo not shown), in assay [1] (Table 1b), the EC50 lay within 30 to 1000 nM. The IC50 in assay [2] (Table 1b) is 20 to 1000 nM.
For the compound `COc1ccc2c(c1)CC(NC(N)=O)Cn1c-2c(C2CCCCC2)c2ccc(C(=O)NS(=O)(=O)N(C)C)cc21` (stereo not shown), in assay [1] (Table 1b), the EC50 lay in the range of 30 to 1000 nM. For the same compound, in assay [2] (Table 1b), the IC50 was 20 to 1000 nM.
As for `COCCNC(=O)CN(C)C(=O)NC1Cc2cc(OC)ccc2-c2c(C3CCCCC3)c3ccc(C(=O)NS(=O)(=O)N(C)C)cc3n2C1` (stereo not shown), the concentration for a half-maximal effect (EC50) in assay [1] (Table 1b) is 30 to 1000 nM. In assay [2] (Table 1b), the IC50 was in the range of 20 to 1000 nM.

The term EC50 denotes the concentration that produces a half-maximal response. For orientation: IC50 means the point on the concentration scale where inhibition reaches its midpoint.
